The text below walks through data of US9320810B2, “HMGN2 peptides and related molecules that selectively home to tumor blood vessels and tumor cells” (Sanford-Burnham Medical Research Institute, priority 2002, dated 2016).

Where no end group is shown, it is not given here.

One assay deals with HL-60 cells. The assay is described as follows: Phage binding to cultured HL-60 cells in vitro. In kind it is cell-based, human. Particulars: phage-displayed HMGN1 exon 3 sequence. On the procedure:
(§1) In particular, about 1000 times more SEQ ID NO:5-displaying phage than non-recombinant T7 phage bound to cultured HL-60 or MDA-MB-435 cells in vitro. Similarly, SEQ ID NO:5-displaying also bound cell suspensions prepared from HL-60 tumors with a 1000-fold specificity relative to control T7 phage.
The phage binding assay was performed essentially as follows. Attachment of phage to cells was quantified by incubating 1×10^8 pfu of phage displaying SEQ ID NO: 9 for 60 minutes with 1×10^6 HL-60 cells at 4° C. in Tris-buffered saline with 1 mM Ca^+2 and 1 mM MgCl2. Bound phage were rescued after four washes with phosphate-buffered saline by adding 1 ml of bacteria for 7 minutes at room temperature. Bound phage were quantified by plating and counting pfu.
Binding of SEQ ID NO: 9-displaying phage to tumor cells was inhibited by free SEQ ID NO: 9 peptide in a dose dependent fashion. […] In contrast, background binding of non-recombinant phage was unaffected by free peptide. Specificity of cell binding by peptide SEQ ID NO: 9 was further confirmed by comparing HL-60 cell binding of phage expressing the HMGN2 exon 3 sequence PQRRSARLSA (SEQ ID NO: 11) to binding with phage expressing the homologous HMGN1 exon 3 sequence PKRRSARLSA (SEQ ID NO: 12).

Assay [1] relates to primary cells obtained from HL-60 xenograft tumors. The assay is described as follows: Phage binding to primary cells obtained from HL-60 xenograft tumors. In kind it is cell-based, human. To be noted: phage-displayed.
From the text: as §1
Phage displaying a set of sequences corresponding to fragments of the amino-terminal portion of HMGN2 (SEQ ID NO: 5) were constructed to localize the region responsible for cell binding and in vivo homing. Fragments were designed to follow the exon/intron boundaries of the HMGN2 gene. Inserts encoding the indicated fragments were amplified from the full length HMGN2 phage clone by PCR, purified, digested and directionally cloned into the T7 415-1 and 10-3 vectors. Phage were packaged, amplified and sequenced according to the manufacturer's instructions. Phage preparations were then tested for binding to primary cells obtained from HL-60 xenograft tumors. After a 1 hour incubation at 4° C., cells were washed, and bound phage quantified. […] Furthermore, phage displaying the N-terminal portion of the active fragment SEQ ID NO: 9, which corresponds to exon 3 of the HMGN2 gene, were prepared. These phage expressing the sequence PQRRSARLSA (SEQ ID NO: 11) bound to tumor cells 90-fold more than non-recombinant phage.
In general terms: A xenograft is tissue or cells of one species grown in another, often human tumour cells in immunodeficient mice.

The next assay has as its system mitochondrial membranes. Particulars: cited from earlier work.
In assay [2] the test system is human bone marrow mononuclear cells. The assay is described as follows: Flow cytometry of fluorescein-labeled peptide binding to human bone marrow mononuclear cells. Particulars: FIG. 4, fluorescent peptide. In kind it is cell-based. On the procedure:
Fluorescein-labeled SEQ ID NO: 9 or control peptide SEQ ID NO: 13 (2 μM) were incubated with gradient-depleted bone marrow cells for one hour at 4° C. and analyzed in a flow cytometer. […] The SEQ ID NO: 9-positive cells were the size of lymphocytes, agranular, CD45-positive and mostly CD34-negative, a marker profile similar to that of the lineage-depleted murine bone marrow cells used in the in vitro phage selection.
Flow cytometry was performed as follows. Human bone marrow specimens represented excess material from samples collected for diagnostic purposes from adults with hematological malignancies following informed consent. A total of 2 ml of bone marrow was aspirated from the posterior iliac crest and stored in a citrate anticoagulant. Mononuclear cells were isolated by gradient centrifugation (Ficoll-Paque PLUS; Amersham Pharmacia Biotech; Uppsala, Sweden) and incubated in RPMI-1640 media supplemented with 10% FBS for two hours at 37° C. Cells subsequently were transferred to 4° C. and incubated with 1-2 μM fluorescein-conjugated peptide for 45 minutes before staining with PerCP- or PE-conjugated CD34 and CD45 antibodies (Beckton Dickinson Biosciences; San Jose, Calif.) for 30 minutes. Samples were analyzed with either a FACSCalibur or LSR flow cytometer (Beckton Dickinson Biosciences); 100,000 events were collected.
(Flow cytometry measures light scatter and fluorescence of single cells or particles in a stream.)

A further assay has as its system HL-60 xenograft tumors. The assay is described as follows: Tissue localization of intravenously injected fluorescein-conjugated peptide, HL-60 xenograft mice. Format: in vivo, mouse. To be noted: tail vein. The procedure:
To study peptide localization, fluorescein-conjugated SEQ ID NO: 9 or ARALPSQRSR (SEQ ID NO: 13) was injected into the tail vein of mice bearing HL-60 or MDA-MB-435 xenografts. Peptide injection was followed 10 minutes later by injection of biotinylated tomato lectin, a marker of the vasculature. After another five minutes, mice were perfused through the heart with fixative solution, and the organs dissected, sectioned and stained with streptavidin-AlexaFluor 594. Slides were counter-stained with DAPI and examined under an inverted fluorescent microscope.
As shown in FIGS. 3A and G-J, fluorescence predominantly localized to nuclei, with most of the tumor cells containing fluorescence positioned close to blood vessels. […] In some microscopic fields, SEQ ID NO: 9 fluorescence essentially was limited to the endothelial cells, clearly illustrating the expression of peptide SEQ ID NO: 9 within endothelial cells and their nuclei (see FIG. 3F).
Histological analyses were performed as follows. […] Biotin-conjugated lectin was detected with streptavidin-Alexa 594 (Molecular Probes; Eugene, Oreg.); the slides were mounted with Vectashield-DAPI (Vector Laboratories; Burlingame, Calif.), and examined under an inverted fluorescent microscope.

For the substance PKRRSARLSA [SEQ ID NO: 12], in the assay on HL-60 cells, the “reduction of HL-60 cell binding relative to HMGN2 phage expressing SEQ ID NO: 11” value stood at 90%.

As for PQRRSARLSA [SEQ ID NO: 11], the “binding to tumor cells relative to non-recombinant phage” value in assay [1] was determined as 90 fold. For the substance “D(KLAKLAK)2: antimicrobial, pro-apoptotic peptide”, the “concentration inducing marked mitochondrial swelling” value with mitochondrial membranes was 10 µM. For the substance “ARALPSQRSR (not fully specified (N-terminus); also: fluorescein label) [SEQ ID NO: 13, fluorescein-labeled scrambled exon 3 control peptide]”, in assay [2], the “number of cells in lower right quadrant (FACS)” value came out at 1 and the “percentage of cells in lower right quadrant (FACS)” value is listed as 0.0. Also, the “fluorescence in tumor tissue” value in the assay on HL-60 xenograft tumors (fluorescein-conjugated peptide, about 15 minutes circulation) is on record as “essentially undetectable in other tissues, including the HL-60 tumors”. The fluorescence in kidneys result in the assay with HL-60 xenograft tumors (fluorescein-labeled peptide, non-specific uptake) is on record as “diffuse fluorescence accumulated in proximal tubules of kidneys”.
